The supplement of paper PMC7017272

Tests used:
Assay in all cases: relative IC50 (midpoint of the fitted curve; maximal inhibition may be below 50%); higher = less potent
Conditions in all cases: treatment time: 3 days
UT-SCC-24A = system: UT-SCC-24A
Description: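 HNSCC cell lines (500 cells/well, 384-well) were cultured on plastic, on top of (2D) or embedded (3D) in Matrigel or human leiomyoma matrix Myogel (500 ug/mL; Myogel 3D mixed with rat collagen I). Cells were treated for 3 days with 5 ten-fold concentrations of each drug, and viability was read by CellTiter-Glo. Viability was normalised to DMSO (0% inhibition) and 100 uM benzethonium chloride (100% inhibition) controls and fitted with the FIMM DSRT pipeline to give IC50 (nM), maximal % inhibition and the drug sensitivity score (DSS). Suffixes _1/_2/_3 on drug names are replicates.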

UT-SCC-106A = system: UT-SCC-106A
In short: (§1)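 Three growth formats were used for HPV-negative HNSCC cell lines in 384-well plates at 500 cells/well: bare plastic, wells coated with Matrigel or Myogel (500 µg/mL), and embedding in Matrigel or Myogel plus rat collagen I. Compounds were added at five 10-fold concentrations, and after 3 days CellTiter-Glo 2.0 luminescence was recorded and normalised to vehicle (0.1% DMSO) and cell-killing control wells. IC50, maximal inhibition and drug sensitivity score came from percent-inhibition dose–response fitting in the FIMM pipeline.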

UT-SCC-81 = system: UT-SCC-81
In short: as §1

UT-SCC-40 = system: UT-SCC-40
In short: as §1

UT-SCC-28 = system: UT-SCC-28
In short: as §1

UT-SCC-42A = system: UT-SCC-42A
In short: as §1

UT-SCC-24B = system: UT-SCC-24B
In short: as §1

UT-SCC-42B = system: UT-SCC-42B
In short: as §1

UT-SCC-14 = system: UT-SCC-14
In short: as §1

UT-SCC-73 = system: UT-SCC-73
In short: as §1

UT-SCC-44 = system: UT-SCC-44
In short: as §1

[1] = culture condition: embedded in Matrigel
[2] = culture condition: embedded in Myogel + collagen I
[3] = culture condition: on top of Matrigel
[4] = culture condition: on top of Myogel
[5] = culture condition: plastic 2D (no matrix)

What does the source list for `O=C(NC[C@H](O)CO)c1ccncc1Nc1ccc(I)cc1F` [Pimasertib]?
relative IC50 (UT-SCC-24A; [1]): 4.15 nM; relative IC50 (UT-SCC-24A; [2]): 77 nM; relative IC50 (UT-SCC-24A; [3]): 6.19 nM; relative IC50 (UT-SCC-24A; [4]): 105 nM; relative IC50 (UT-SCC-24A; [5]): 10.2 nM; relative IC50 (UT-SCC-106A; [1]): 11.7 nM; relative IC50 (UT-SCC-106A; [2]): 491 nM; relative IC50 (UT-SCC-106A; [3]): 11.5 nM; relative IC50 (UT-SCC-106A; [4]): 768 nM; relative IC50 (UT-SCC-106A; [5]): 19 nM; relative IC50 (UT-SCC-81; [1]): 14.5 nM; relative IC50 (UT-SCC-81; [3]): 43.5 nM; relative IC50 (UT-SCC-81; [4]): 532 nM; relative IC50 (UT-SCC-81; [5]): 223 nM; relative IC50 (UT-SCC-40; [1]): 12.9 nM; relative IC50 (UT-SCC-40; [2]): 45.4 nM; relative IC50 (UT-SCC-40; [3]): 30.1 nM; relative IC50 (UT-SCC-40; [4]): 89.4 nM; relative IC50 (UT-SCC-40; [5]): 89 nM; relative IC50 (UT-SCC-28; [1]): 76.8 nM; relative IC50 (UT-SCC-28; [3]): 98.8 nM; relative IC50 (UT-SCC-42A; [1]): 14.2 nM; relative IC50 (UT-SCC-42A; [2]): 183 nM; relative IC50 (UT-SCC-42A; [3]): 17.6 nM; relative IC50 (UT-SCC-42A; [5]): 40.8 nM; relative IC50 (UT-SCC-24B; [1]): 150 nM; relative IC50 (UT-SCC-24B; [2]): 212 nM; relative IC50 (UT-SCC-24B; [3]): 184 nM; relative IC50 (UT-SCC-24B; [4]): 653 nM; relative IC50 (UT-SCC-24B; [5]): 102 nM; relative IC50 (UT-SCC-42B; [1]): 12.4 nM; relative IC50 (UT-SCC-42B; [3]): 42.6 nM; relative IC50 (UT-SCC-42B; [4]): 221 nM; relative IC50 (UT-SCC-42B; [5]): 123 nM; relative IC50 (UT-SCC-14; [3]): 250 nM; relative IC50 (UT-SCC-14; [4]): 416 nM; relative IC50 (UT-SCC-14; [5]): 637 nM; relative IC50 (UT-SCC-73; [1]): 20.4 nM; relative IC50 (UT-SCC-73; [2]): 95.9 nM; relative IC50 (UT-SCC-73; [3]): 21 nM; relative IC50 (UT-SCC-73; [4]): 64.6 nM; relative IC50 (UT-SCC-73; [5]): 37.6 nM; relative IC50 (UT-SCC-44; [3]): 35.2 nM; relative IC50 (UT-SCC-44; [4]): 148 nM
